According to patent publication US8202555B2, “Natural pharmaceutical preparations for increasing albumin” (priority 2009, dated 2012):

Legend:
SIV = conditions: general statement, no own test; cited from earlier work
[1] = CCl4-induced liver injury (cirrhosis with ascites) in rats: serum proteins, ascites, fibrosis markers; format: in vivo, rat; conditions: 4 weeks
[2] = Tuberculous pleural effusions and serum albumin in BCG-sensitized guinea pigs; format: in vivo; conditions: 5 mg/kg, 7 days
Text: After sensitizing with BCG for 42 days, guinea pig was administrated with preparations for 7 days, sensitized for 2 days continuously, then measured the level of Pleural Effusion, number of white blood cell and content of serum albumin

[3] = tested on: HR-resistant (Isoniazid and Rifampicin) tubercle bacillus; format: cell-based; conditions: serum of mice dosed 25 mg/kg, 10% serum
[4] = tested on: H-resistant (Isoniazid) tubercle bacillus; format: cell-based; conditions: serum of mice dosed 25 mg/kg, 10% serum
H37Rv Tubercle Bacillus = test: Anti-tubercle bacillus assay in vivo, total lung bacterial count; conditions: infected C57BL/6 mice, 25 mg/kg
Method: Anti-tubercle bacillus assay is tested in vivo. C57BL/6 mice infected with H37Rv Tubercle Bacillus are divided into 6 groups (n=15), one is normal control group, another is positive control group (INH: 25 mg/kg), in other groups, preparations was added into mice's feed, animals are administrated consecutive 16 weeks.
Experimental staff Killed 5 mice at the 2nd, 4th, 16th week, obtained lung and spleen, put them into 1 ml 7H9 media, grinded and converted them into 1.5 ml Ep tube, doublely diluted 10 times with 7H9 media, then Plated different dilutions onto 7H11 solid media plates for 4w at 37° C., counted tuberculosis colonys.
Calculation Formula: (initial number of clone×final broth volume×dilution factor 10^3×2×10)+(initial number of clone colony×final broth volume×dilution factor 10^4×2×10)+(initial number of clone colony×final broth volume×dilution factor 10^5×2×10)/3
Take tissue for pathological examination, weight lung, Calculation Formula: (initial number of clone×final broth volume×dilution factor 10^3×2×10)+(initial number of clone colony×final broth volume×dilution factor 10^4×2×10)+(initial number of clone colony×final broth volume×dilution factor 10^5×2×10)/3×initial organ weight/organ weight in treatment.
Count number of Lung bacterial or mouse spleen CFU of every mouse in each group, convert data in accordance with 1 g (CFU).

[5] = tested on: HRSE-resistant (Isoniazid, Rifampicin, Streptomycin, Ethambutol-resistant) tubercle bacillus; format: cell-based; conditions: serum of mice dosed 25 mg/kg, 10% serum
[6] = tested on: R-resistant (Rifampicin) tubercle bacillus; format: cell-based; conditions: serum of mice dosed 25 mg/kg, 10% serum
[7] = Serum albumin in rats with intra-abdominal infection; format: in vivo; conditions: 30 mg/kg
Text: The mice are divided into 6 groups (n=10), i.e., Normal control group, Negative control group, Positive control group (Panaxoside), in the remaining 3 groups, rats were fed with preparation 1 through intragastric administration for 6 days. Under anesthesia by diethyl ether, abdominal cavity of mice were cut open, experimental staff stick a puncture on appendices with needle to cause it infected, then sew up abdominal wound. Continue administration after surgery, animals were executed for collecting their blood to measure serum albumin levels, results are listed in Table 7.

[8] = CCl4 rats with ascites, 0.23 mg/kg intragastrically

Molecule: Cc1cn([C@H]2C[C@H](N=[N+]=[N-])[C@@H](CO)O2)c(=O)[nH]c1=O [AZT, Zidovudine]
- inhibition of infection by SIV (SIV): could not inhibited infection

Molecule: COc1cc2c(c(OC)c1OC)-c1ccc(OC)c(=O)cc1[C@@H](NC(C)=O)CC2 [Colchicine, colchicine]
- ALB [1, 8]: 38.1 ± 5.6 g/L
- ALB/GLB [1, 8]: 2.8 ± 1.6
- GLB [1, 8]: 17.1 ± 7.7 g/L
- Incidence (ascites) ([1]; CCl4 rats, 0.23 mg/kg): 50%
- Animal with ascites n ([1]; CCl4 rats, 0.23 mg/kg, of 10 animals): 5
- HPRO ([1]; CCl4 rats, liver, 0.23 mg/kg): 0.29 ± 0.08 mg/g (Liver Weight)

Molecule: C[C@@H]1C[C@H]2[C@@H]3CCC4=CC(=O)C=C[C@]4(C)[C@@]3(F)[C@@H](O)C[C@]2(C)[C@@]1(O)C(=O)CO [Dexamethasone]
- ALB [2]: 29.05 ± 3.49 g/L
- Exudates volumes [2]: 1.2 ± 0.44 mL
- WBC [2]: 19.1 ± 5.24 ×109

Molecule: NNC(=O)c1ccncc1 [INH, Isoniazid]
- Inhibition rate of serum, HR-resistance [3]: 67%
- Inhibition rate of serum, H-resistance [4]: 0%
- Total Lung bacterical count, Mean lg (CFU ± SEM) (H37Rv Tubercle Bacillus; 2 w): 6.12 ± 0.22 lg (CFU)
- Total Lung bacterical count, Mean lg (CFU ± SEM) (H37Rv Tubercle Bacillus; 4 w): 5.59 ± 0.20 lg (CFU)
- Total Lung bacterical count, Mean lg (CFU ± SEM) (H37Rv Tubercle Bacillus; 16 w): 2.77 ± 0.16 lg (CFU)
- Inhibition rate of serum, HRSE-resistance [5]: 21%
- Inhibition rate of serum, R-resistance [6]: 72%

Molecule: Panaxoside
- ALB [7]: 29.64 ± 2.29 g/L
